Laboratory results taken from patent publication US7994116B2, “Methods for reduction of adhesion formation using cytokine inhibitors” (Pharmasurgics In Sweden AB, priority 2002, dated 2011).

Tests used:
[1] = test system: rats with a standardized laminectomy; test: laminectomy model on the rat, infliximab treatment: wound healing and scar formation; assay type: in vivo; conditions: laminectomy of 4th lumbar vertebra, 4 mg/kg intraperitoneal
Method: Four rats were anaesthetized with a standardized combination of pentobarbital and diazepam. The skin on the back was shaved. Through a midline incision, a laminectomy of the 4th lumbar vertebra was performed. The spinal muscles and the skin was sutured. Two rats received an intraperitoneal injection of 4 mg/kg of infliximab. Infliximab is a monoclonal antibody towards TNF with an inhibiting action with a duration of 1-2 months following single administration in the dosage used. The other two rats received an intraperitoneal injection of saline. After 2 weeks, the rats were reanaesthesized and wound healing and scar formation were evaluated by a person being unaware of the experimental protocol. Wound healing was considered normal in both groups. […] In the non-treated group, there was a somewhat more dense lump of connective tissue that was adherent to the spinal dura mater.

TNF = conditions: following single administration in the dosage used (4 mg/kg); cited from earlier work

infliximab
adhesion of connective tissue to the spinal dura mater ([1]; after 2 weeks, saline group: adherent to the dura mater): did not adhere to the spinal dura mater and was easy to remove
scar formation: tissue filling the previous location of the lamina ([1]; after 2 weeks, saline group: somewhat more dense lump of connective tissue): soft connective tissue
wound healing ([1]; evaluated after 2 weeks, blinded): normal
duration of inhibiting action towards TNF (TNF): 1-2 months
